{"source": "patent US20120283293A1", "about": "“Methods of neuroprotection involving Prostaglandin E2 EP4 (PGE2 EP4) receptor activation” (The Board of Trustees of the Leland Stanford Junior …, priority 2011, published 2012)", "key": {"[1]": {"test_system": "Akt phosphorylation in BV-2 cells", "experiment": "phospho-Akt quantitative Western (Ser473) and ELISA (Thr308) in LPS-treated BV-2 cells", "assay_type": "cell-based, murine", "method": "Nuclear and cytoplasmic fractions of BV-2 cells were prepared at several time points after treatment (0-120 minutes) using the nuclear extract kit from Active Motif (Carlsbad, Calif.). Briefly, cells were washed, collected in ice-cold PBS in the presence of phosphatase inhibitors, and centrifuged at 300×g for 5 min at 4° C. Cell pellets were resuspended in hypotonic buffer, treated with detergent, and centrifuged at 14,000×g for 30 sec at 4° C. After collection of the cytoplasmic fraction, nuclei were solubilized for 30 min in lysis buffer containing protease inhibitors. Lysates were centrifuged at 14,000×g for 30 min at 4° C. and supernatants were collected for NF-κB studies. To prepare whole cell lysates for phospho-Akt and phospho-IKK studies, cells were washed in ice-cold PBS and lysed in 20 mM Tris-HCl, pH 7.5, 150 mM NaCl, 1 mM Na2EDTA, 1 mM EGTA, 1% Triton, 2.5 mM sodium pyrophosphate, 1 mM β-glycerophosphate, 1 mM orthovanadate, 1 μg/ml leupeptin and 1 mM PMSF. Lysates were sonicated for 5 seconds, centrifuged at 14,000×g for 10 min at 4° C. and supernatants were collected for phospho-Akt and phospho-IKK studies. All protein concentrations were determined using the Bradford protein assay.\nWestern blot analysis. […] Immunoreactivity was detected using either sheep anti-rabbit or sheep anti-mouse HRP-conjugated secondary antibody (Amersham Biosciences, Arlington Heights, Ill.), followed by enhanced chemiluminescence (Pierce). Autoradiographic signals were quantified using NIH Image. […]\nMeasurements of phospho-Akt and total Akt were determined using the PathScan phospho-Akt (Thr308) and total Akt1 ELISA kits (Cell Signaling Technology, Danvers, Mass.). […]\nIn addition to its known Gas coupling to PKA, the EP4 receptor can signal via PI3K and Akt via a Gαi subunit (Fujino et al., 2002; Fujino & Regan, 2006). To further investigate whether EP4 signaling modulates PI3K/Akt pathway activity in LPS-stimulated BV-2 cells, levels of phospho-Akt were measured using quantitative Western analysis (phosphorylated Ser473 Akt; FIG. 3C) and ELISA (phosphorylated Thr308 Akt; FIG. 3D). […]"}, "primary microglia": {"test_system": "primary microglia", "experiment": "qPCR of inflammatory gene expression in LPS-stimulated primary microglia", "assay_type": "cell-based, rat", "details": "LPS treated primary microglia, AE1-329 100 nM, 3 h", "method": "Murine microglial-like BV-2 cells were grown in DMEM medium supplemented with 10% heat-inactivated fetal bovine serum (HyClone, Logan, Utah) and 100 units/ml each of penicillin and streptomycin and were maintained at 37° C. in a humidified atmosphere containing 5% CO2. For primary microglial cultures, cerebral cortices were isolated from postnatal day 2 Sprague-Dawley rat pups obtained from Charles River Laboratories International, Inc. (Davis, Calif.). Tissues were minced and incubated in 0.25% trypsin-EDTA, mechanically triturated in DMEM/F-12 with 10% FBS, and plated on poly-L-lysine-coated […]. Cultures were maintained for 14 days with media changes every 4 days. […]\nqPCR was carried out as previously described (Liang et al., 2008). […] The mRNA level for each target gene was quantified by SYBR Green-based qPCR using the QuantiTect SYBR Green PCR kit (Qiagen). […] Quantification was performed using the standard curve method. […]\nInflammatory stimuli such as LPS can activate microglia through the CD14/TLR4 receptor complex and induce the expression of pro-inflammatory enzymes and cytokines (Fassbender et al., 2004; Walter et al., 2007). […] BV-2 cells were treated with LPS (10 ng/ml) in the presence or absence of the selective EP4 agonist AE1-329 (1 μM) for 6 h, and pro-inflammatory gene expression was measured using qPCR (see FIG. 2). […]"}}, "data": [{"smiles": "COCc1ccccc1CC[C@H](O)/C=C/[C@H]1[C@H](O)CC(=O)[C@@H]1SCCCSCC(=O)O", "note": "[AE1-329]", "values": [{"measurement": "Akt phosphorylation, agonist alone", "setting": "[1]; BV-2 cells, in the absence of LPS", "result": "did not alter Akt phosphorylation"}, {"measurement": "phospho-Ser473 Akt signal (quantitative Western)", "setting": "[1]; LPS (100 ng/ml) treated BV-2 cells, AE1-329 100 nM, over 60 minutes", "result": "significant attenuation"}, {"measurement": "phospho-Thr308 Akt (ELISA, p-Akt/Akt)", "setting": "[1]; LPS-treated BV-2 cells, AE1-329 100 nM, 60 minutes", "result": "significant decrease"}, {"measurement": "IL-10 expression", "setting": "primary microglia", "result": "upregulation of the anti-inflammatory IL-10"}, {"measurement": "pro-inflammatory gene expression (iNOS, COX-2, TNF-α, gp91phox)", "setting": "primary microglia", "result": "downregulation of pro-inflammatory gene expression"}]}]}
